From ChEMBL document CHEMBL1123526, “3-Hydroxy-3-methylglutaryl-coenzyme A reductase inhibitors. 4. Side chain ester derivatives of mevinolin” (J Med Chem, 1986)

What follows are molecules tested against T1, 3-hydroxy-3-methylglutaryl-coenzyme A reductase (Rattus norvegicus, UniProt P51639) (assay: Inhibition of solubilized, purified rat liver HMG-CoA reductase.).
T1 sequence (P51639 whole entry): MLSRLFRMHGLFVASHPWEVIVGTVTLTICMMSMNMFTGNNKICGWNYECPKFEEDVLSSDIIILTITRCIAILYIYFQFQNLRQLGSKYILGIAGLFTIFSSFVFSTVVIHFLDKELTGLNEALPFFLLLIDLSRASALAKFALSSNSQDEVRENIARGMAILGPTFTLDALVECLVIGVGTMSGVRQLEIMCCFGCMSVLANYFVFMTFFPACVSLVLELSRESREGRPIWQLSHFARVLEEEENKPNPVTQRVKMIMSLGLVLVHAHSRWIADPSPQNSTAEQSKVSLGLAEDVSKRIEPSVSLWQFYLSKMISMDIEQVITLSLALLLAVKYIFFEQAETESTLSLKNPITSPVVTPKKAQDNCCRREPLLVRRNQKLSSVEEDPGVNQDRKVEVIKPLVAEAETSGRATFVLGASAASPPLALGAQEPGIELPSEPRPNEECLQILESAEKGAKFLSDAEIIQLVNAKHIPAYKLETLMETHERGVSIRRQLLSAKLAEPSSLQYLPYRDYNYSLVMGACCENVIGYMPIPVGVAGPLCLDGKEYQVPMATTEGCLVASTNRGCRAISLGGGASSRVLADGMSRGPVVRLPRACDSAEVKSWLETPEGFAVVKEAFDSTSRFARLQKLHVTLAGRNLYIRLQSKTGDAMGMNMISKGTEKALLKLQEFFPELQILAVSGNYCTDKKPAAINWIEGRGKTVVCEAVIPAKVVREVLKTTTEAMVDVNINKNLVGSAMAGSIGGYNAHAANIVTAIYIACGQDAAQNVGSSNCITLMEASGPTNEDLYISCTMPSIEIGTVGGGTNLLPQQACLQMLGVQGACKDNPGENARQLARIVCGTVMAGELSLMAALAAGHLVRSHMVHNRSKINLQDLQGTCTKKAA

Going from `C=C(C)CC(=O)O[C@H]1C[C@@H](C)C=C2C=C[C@H](C)[C@H](CC[C@@H]3C[C@@H](O)CC(=O)O3)C21` (some centres undefined) to `CC(=O)O[C@H]1C[C@@H](C)C=C2C=C[C@H](C)[C@H](CC[C@@H]3C[C@@H](O)CC(=O)O3)C21` (some centres undefined), the IC50 rises from 2.9 nM to 269 nM (93-fold). The first is the more potent here.

`CC[C@@H](C)C(=O)O[C@H]1C[C@@H](C)C=C2C=C[C@H](C)[C@H](CC[C@@H]3C[C@@H](O)CC(=O)O3)C21` (some centres undefined) and `CC[C@H](C)C(=O)O[C@H]1C[C@@H](C)C=C2C=C[C@H](C)[C@H](CC[C@@H]3C[C@@H](O)CC(=O)O3)C21` (some centres undefined) are the same in IC50: 2.2 nM for the first, 2.2 nM for the second.

Compared with `C[C@H]1C=C2C=C[C@H](C)[C@H](CC[C@@H]3C[C@@H](O)CC(=O)O3)C2[C@@H](OC(=O)c2ccc(F)cc2)C1` (some centres undefined), `C[C@H]1C=C2C=C[C@H](C)[C@H](CC[C@@H]3C[C@@H](O)CC(=O)O3)[C@H]2[C@@H](OC(=O)Cc2ccccc2)C1` is 1.9-fold lower in IC50: 37 nM for the first, 19 nM for the second.

`CC(C)CC(=O)O[C@H]1C[C@@H](C)C=C2C=C[C@H](C)[C@H](CC[C@@H]3C[C@@H](O)CC(=O)O3)C21` (some centres undefined) and `CC(C)C(=O)O[C@H]1C[C@@H](C)C=C2C=C[C@H](C)[C@H](CC[C@@H]3C[C@@H](O)CC(=O)O3)C21` (some centres undefined) are within 1.5-fold of each other in IC50: 5.4 nM for the first, 7.7 nM for the second.

Compared with `CC(C)=CC(=O)O[C@H]1C[C@@H](C)C=C2C=C[C@H](C)[C@H](CC[C@@H]3C[C@@H](O)CC(=O)O3)C21` (some centres undefined), `C[C@H]1C=C2C=C[C@H](C)[C@H](CC[C@@H]3C[C@@H](O)CC(=O)O3)C2[C@@H](OC(=O)C(C)(C)C)C1` (some centres undefined) is 10-fold lower in IC50: 27.3 nM for the first, 2.7 nM for the second. The second is the more potent here.

`CCC(C)(CC)C(=O)O[C@H]1C[C@@H](C)C=C2C=C[C@H](C)[C@H](CC[C@@H]3C[C@@H](O)CC(=O)O3)C21` (some centres undefined) and `CCC(CC)(CC)C(=O)O[C@H]1C[C@@H](C)C=C2C=C[C@H](C)[C@H](CC[C@@H]3C[C@@H](O)CC(=O)O3)C21` (some centres undefined) are the same in IC50: 1.4 nM for the first, 1.4 nM for the second.

First: CCCCCCCCCC(=O)O[C@H]1C[C@@H](C)C=C2C=C[C@H](C)[C@H](CC[C@@H]3C[C@@H](O)CC(=O)O3)C21 (some centres undefined)
Second: CCCCC(=O)O[C@H]1C[C@@H](C)C=C2C=C[C@H](C)[C@H](CC[C@@H]3C[C@@H](O)CC(=O)O3)C21 (some centres undefined)
The IC50 of the first is 34-fold higher: 295 nM for the first, 8.7 nM for the second. The second is the more potent here.

First: C[C@H]1C=C2C=C[C@H](C)[C@H](CC[C@@H]3C[C@@H](O)CC(=O)O3)C2[C@@H](OC(=O)C23CC4CC(CC(C4)C2)C3)C1 (some centres undefined)
Second: C[C@H]1C=C2C=C[C@H](C)[C@H](CC[C@@H]3C[C@@H](O)CC(=O)O3)C2[C@@H](OC(=O)C2CC2)C1 (some centres undefined)
The IC50 of the first is 10-fold lower: 3.8 nM for the first, 38.6 nM for the second. The first is the more potent here.

Going from `CCCC(CC)(CC)C(=O)O[C@H]1C[C@@H](C)C=C2C=C[C@H](C)[C@H](CC[C@@H]3C[C@@H](O)CC(=O)O3)C21` (some centres undefined) to `CC(CC(=O)O[C@H]1C[C@@H](C)C=C2C=C[C@H](C)[C@H](CC[C@@H]3C[C@@H](O)CC(=O)O3)C21)C(F)(F)F` (some centres undefined), the IC50 rises from 1.9 nM to 3.5 nM (1.8-fold). The first is the more potent here.

Molecule `C[C@H]1C=C2C=C[C@H](C)[C@H](CC[C@@H]3C[C@@H](O)CC(=O)O3)C2[C@@H](OC(=O)Oc2ccccc2)C1` (some centres undefined) has an IC50 of 83 nM.
